Read-outs that look alike come from different tables or passages of the source.
Key:
HIV-1 NefNL4-3 = HIV-1 NefNL4-3 (Human immunodeficiency virus type 1 group M subtype B, UniProt P03406, A33V/T15A/T51N/V11I); assay: Surface plasmon resonance binding to recombinant full-length Nef (NL4-3); conditions: for RU30/RUNef (extent of binding): response units at 30 μM relative to Nef immobilized on the SPR chip; for T, minutes (residence time): 2-step induced fit, T = 1/koff2
HIV-1NL4-3 = assay: HIV-1 infectivity assay in TZM-bl reporter cell line (LTR-luciferase, 48 h); assay type: cell-based; conditions: Human immunodeficiency virus 1, TZM-bl
In short: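 TZM-bl cells infected with HIV-1NL4-3 ± compound (1 μM), luciferase measured at 48 h. Normalization: DMSO/wild-type = 0% inhibition, DMSO/Nef-defective = 100% of Nef-dependent effect.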

HIV-1 NL4-3 = assay: HIV-1 replication in normal donor PBMCs (p24 Gag AlphaLISA); assay type: cell-based; conditions: Table 1, 4 days; for IC50: Human immunodeficiency virus 1, NL43, PBMC, 96 h
Method: FIG. 4. Inhibition of HIV-1 replication by compounds disclosed herein in PBMCs. Donor PBMCs were infected with HIV-1 in the presence of inhibitor concentrations ranging from 1 to 1,000 nM or the DMSO carrier solvent as a negative control (0.1% DMSO final). Replication was assessed by p24 Gag AlphaLISA (Perkin Elmer) […]. Each donor was also infected with Nef-defective HIV-1 to establish the baseline for Nef-dependent enhancement of replication in each culture. Cytotoxicity was assessed in uninfected PBMCs over the same incubation period using the CellTiter-Blue assay (Promega). Data were fit by non-linear regression analysis (GraphPad Prism v.7.04) to determine the IC50 and CC50 values shown.
The tables also show data for HIV-1 Replication in normal donor peripheral blood mononuclear cells (PBMCs), which is assay is conducted as follows:
Non-HLA-typed buffy coats (Source: Pittsburgh Central Blood Bank, #E3755) are received and processed within 24 hours of blood donation. PBMCs are isolated via rocking for RBC separation following 1:1 dilution with PBS, followed by Ficoll gradient centrifugation. The lymphocyte fraction is removed and washed several times for a final concentration of ˜150-300×10^6 cells per donor. Cells are activated for 3 days with 1-5 μg/mL PHA (Sigma) and 50 U/mL IL-2. Cells are plated at 750,000 cells/ml and viability is checked at day 3 using the Cell Titer Blue assay (Promega). If cells are >90% viable, then they are infected with HIV-1 NL4-3, wild-type or Δ-Nef mutant (input typically 30-500 pg/mL p24 capsid equivalents) in the presence or absence of Nef inhibitor analogs. IL-2 is included in the media at the time of infection. After 4 days, cells are lysed with 1% Triton X-100 for 1.5 h, checked for viability via Cell Titer Blue, and frozen/stored at −20° C. HIV-1 replication is assessed with a high-sensitivity HIV-1 p24 AlphaLISA assay (Perkin Elmer) in ½-volume 96-well plates, using one-half of the recommended assay volumes for all reagents (including samples). Assays are read on the BioTek Cytation5 instrument; readout is in AlphaUnits and replication in p24 pg/mL is determined using an HIV-1 p24 capsid protein standard included in the Alpha kit.

TZM-bl cell line = assay type: cell-based; conditions: human, 1 μM
In short: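 Nef-dependent infectivity in TZM-bl cells: HIV-1NL4-3 infection with 1 μM compound, luciferase read at 48 h, normalized against DMSO wild-type and Nef-defective controls. Compound cytotoxicity in uninfected cells measured by Cell Titer Blue.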

[1] = Nef NL4-3 Binding, SPR 2-state fitting KD, Table 1, 2-step induced-fit model
[2] = 48 h, Table 1, TZM-bl cells, 1 μM, 48 h, 100% = Nef-defective HIV-1, read-out: HIV-1 Infectivity % Inhibition Norm. to Δ-Nef @ 1 μM
[3] = words (Not active, Borderline) where no bound is given
[4] = read-out: Nef NL4-3 Binding, SPR 1:1 or 2-site fitting KD2, Table 1, 2-site fit, second component
[5] = 1.0 μM, TZM-bl reporter cell line, Table 4, read-out: % Infectivity Inhibition
[6] = KD, M, Table 4, SPR fit 2-step induced fit, KD = koff/kon × koff2/(koff2 + kon2)

| SMILES | Kd (HIV-1 NefNL4-3; Nef NL4-3 Binding, SPR 1:1 or 2-site fitting KD2, Table 1, 2-site fit, second component) | Kd (HIV-1 NefNL4-3; [1]) | inhibition at 1 µM (HIV-1NL4-3; [2]) | HIV Replication PBMC IC50 vs. HIV NL4-3 (HIV-1 NL4-3; [3]) | Percent Viability @ 1 μM (TZM-bl cells) (TZM-bl cell line) | Kd (HIV-1 NefNL4-3) | Kd (HIV-1 NefNL4-3; [4]) | RU30/RUNef (extent of binding) (HIV-1 NefNL4-3) | inhibition at 1 µM (HIV-1NL4-3; [5]) | % Cell Viability (TZM-bl cell line) | Kd (HIV-1 NefNL4-3; [6]) | T, minutes (residence time) (HIV-1 NefNL4-3; Table 4) | IC50 (HIV-1 NL4-3; [3]) | IC50 (HIV-1 NL4-3) | Nef NL4-3 Binding, SPR 1:1 or 2-site fitting KD1 (HIV-1 NefNL4-3; Table 1, 1:1 Langmuir fit where the KD2 cell says '1 to 1 fitting', else 2-site fit) | inhibition at 1 µM (HIV-1NL4-3; 48 h, Table 2, TZM-bl cells, 1 μM, 48 h, 100% = Nef-defective HIV-1, read-out: HIV-1 Infectivity % Inhibition Norm. to Δ-Nef @ 1 μM) |
| --- | --- | --- | --- | --- | --- | --- | --- | --- | --- | --- | --- | --- | --- | --- | --- | --- |
| Oc1c(CCc2ccc(F)cc2)c(-c2cccc(F)c2)nn1-c1nc2ccccc2[nH]1 [Compound I-110, 1-(1H-1,3-benzodiazol-2-yl)-3-(3-fluorophenyl)-4-[2-(4-fluorophenyl)ethyl]-1H-pyrazol-5-ol] | 2140 nM | 30.2 nM | 84.9% | Not active | 88.4% | – | – | – | – | – | – | – | – | – | – | – |
| Oc1c(CCc2ccc(F)cc2)c(-c2ccc(C(F)(F)F)cn2)nn1-c1nc2ccccc2[nH]1 [Compound I-119, 1-(1H-1,3-benzodiazol-2-yl)-4-[2-(4-fluorophenyl)ethyl]-3-[5-(trifluoromethyl)pyridin-2-yl]-1H-pyrazol-5-ol] | – | – | 80.7% | Not active | 77.1% | 0.0189 nM | 6830 nM | 7.52E- 03 | 80.7% | 77.1% | – | – | – | – | – | – |
| Oc1c(CC2CCCC2)c(-c2ccc(C(F)(F)F)cc2)nn1-c1nc2ccccc2[nH]1 [Compound I-123, 1-(1H-1,3-benzodiazol-2-yl)-4-(cyclopentylmethyl)-3-[4-(trifluoromethyl)phenyl]-1H-pyrazol-5-ol] | – | 0.0936 nM | 96.1% | Not active | 85.3% | 88.8 nM | 87800 nM | 2.57E- 02 | 96.1% | 85.3% | 0.0936 nM | 3.79E + 05 minutes | – | – | – | – |
| Oc1c(CCc2ccc(F)cc2)c(C2CCC2)nn1-c1nc2ccccc2[nH]1 [Compound I-129, 1-(1H-1,3-benzodiazol-2-yl)-3-cyclobutyl-4-[2-(4-fluorophenyl)ethyl]-1H-pyrazol-5-ol] | – | 0.0371 nM | 60.9% | – | 99.3% | 2.38 nM | 16800 nM | 1.28E- 02 | 60.9% | 99.3% | 0.0371 nM | 5.19E + 05 minutes | ≤ 10 nM | – | – | – |
| Oc1c(CCc2ccc(F)cc2)c(-c2ccc3c(c2)OC(F)(F)O3)nn1-c1nc2ccccc2[nH]1 [Compound I-145, 1-(1H-1,3-benzodiazol-2-yl)-3-(2,2-difluoro-2H-1,3-benzodioxol-5-yl)-4-[2-(4-fluorophenyl)ethyl]-1H-pyrazol-5-ol] | – | – | -11.7% | Not active | 98.2% | – | – | 4.38E- 03 | 0% | 98.2% | – | – | – | – | – | – |
| Oc1c(CCc2ccc(F)cc2)c(-c2ccc(C(F)(F)F)cc2)nn1-c1nc2ccc(Cl)cc2[nH]1 [Compound I-161, 1-(6-chloro-1H-1,3-benzodiazol-2-yl)-4-[2-(4-fluorophenyl)ethyl]-3-[4-(trifluoromethyl)phenyl]-1H-pyrazol-5-ol] | – | – | 38.7% | Not active | 89.9% | – | – | 1.44E- 02 | 38.7% | 89.9% | – | – | – | – | – | – |
| Oc1c(CCc2ccc(F)cc2)c(-c2ccc(C(F)(F)F)cn2)nn1-c1nc2cc(F)ccc2[nH]1 [Compound I-167, 1-(5-fluoro-1H-1,3-benzodiazol-2-yl)-4-[2-(4-fluorophenyl)ethyl]-3-[5-(trifluoromethyl)pyridin-2-yl]-1H-pyrazol-5-ol] | – | 2.02 nM | 52.1% | Not active | 81.2% | 299 nM | 1740 nM | 1.11E- 02 | 52.1% | 81.2% | 2.02 nM | 5.05E + 03 minutes | – | – | – | – |
| CC(C)(C)OC(=O)N1CCC(c2nn(-c3nc4ccccc4[nH]3)c(O)c2CCc2ccc(F)cc2)CC1 [Compound I-202, tert-butyl 4-[1-(1H-1,3-benzodiazol-2-yl)-4-[2-(4-fluorophenyl)ethyl]-5-hydroxy-1H-pyrazol-3-yl]piperidine-1-carboxylate] | – | 2220 nM | 105% | Not active | 79.2% | – | – | 4.09E- 03 | 100% | 79.2% | 0.00605 nM | 6.36E + 06 minutes | – | – | – | – |
| CC(C)(C)OC(=O)N1CCC(CCc2c(-c3ccc(C(F)(F)F)cc3)nn(-c3nc4ccccc4[nH]3)c2O)CC1 [Compound I-204] | – | 0.0229 nM | 5.8% | – | 95.1% | – | 0.0635 nM | – | 5.8% | 95.1% | 0.0229 nM | – | ≤ 1000 nM | – | – | – |
| CC(C)(C)OC(=O)N1CCCCC1Cc1nn(-c2nc3ccccc3[nH]2)c(O)c1CCc1ccc(F)cc1 (stereo not drawn) [Compound I-207, tert-butyl 2-{[1-(1H-1,3-benzodiazol-2-yl)-4-[2-(4-fluorophenyl)ethyl]-5-hydroxy-1H-pyrazol-3-yl]methyl}piperidine-1-carboxylate] | – | – | -9.4% | – | 99.3% | 1.49 nM | 809 nM | 4.14E- 03 | 0% | 99.3% | – | – | – | ≥ 1000 nM | – | – |
| O=C(NCC1CC1)c1ccc(-c2nn(-c3nc4ccccc4[nH]3)c(O)c2CCc2ccc(F)cc2)cc1 [Compound I-1201, 4-[1-(1H-1,3-benzodiazol-2-yl)-4-[2-(4-fluorophenyl)ethyl]-5-hydroxy-1H-pyrazol-3-yl]-N-(cyclopropylmethyl)benzamide] | – | 740 nM | 11.8% | – | 95.4% | 369 nM | 2510 nM | 2.17E- 02 | 11.8% | 95.4% | 740 nM | 2.06E + 03 minutes | – | – | – | – |
| Nc1c(CCc2ccc(F)cc2)c(-c2ccc(Cl)cc2)nn1-c1nc2ccccc2[nH]1 [Compound I-1401, 1-(1H-1,3-benzodiazol-2-yl)-3-(4-chlorophenyl)-4-[2-(4-fluorophenyl)ethyl]-1H-pyrazol-5-amine] | – | – | -34.5% | – | 99.7% | – | – | – | – | – | – | – | – | – | No Interaction | – |
| Nc1c(CCC2CCOCC2)c(-c2ccc(F)cc2)nn1-c1cc(C(F)(F)F)n[nH]1 [Compound I-1402] | – | – | – | – | 102.2% | 4750 nM | – | – | – | – | – | – | – | – | – | 8.7% |

Reference: patent US20220380341A1, “INHIBITORS OF HIV-1 NEF FOR THE TREATMENT OF HIV DISEASE” (priority 2018, published 2022)
